Laboratory results taken from patent US9387209B2, “Histone deacetylases (HDACs) inhibitors” (ANNJI PHARMACEUTICAL CO., LTD., priority 2012, dated 2016).

Assays:
SH-SY5Y cells [1] = experiment: Neurite outgrowth assay, SH-SY5Y; type: cell-based; details: Homo sapiens
[2] = molecular target: T1, human histone deacetylases (HDAC) 6 (Homo sapiens, UniProt Q9UBN7); experiment: HDAC enzymatic assay, HDAC6; type: biochemical; details: for IC50: HDAC6, read-out: IC50 HDAC6 (grading)
T1 sequence (Q9UBN7 1-1215): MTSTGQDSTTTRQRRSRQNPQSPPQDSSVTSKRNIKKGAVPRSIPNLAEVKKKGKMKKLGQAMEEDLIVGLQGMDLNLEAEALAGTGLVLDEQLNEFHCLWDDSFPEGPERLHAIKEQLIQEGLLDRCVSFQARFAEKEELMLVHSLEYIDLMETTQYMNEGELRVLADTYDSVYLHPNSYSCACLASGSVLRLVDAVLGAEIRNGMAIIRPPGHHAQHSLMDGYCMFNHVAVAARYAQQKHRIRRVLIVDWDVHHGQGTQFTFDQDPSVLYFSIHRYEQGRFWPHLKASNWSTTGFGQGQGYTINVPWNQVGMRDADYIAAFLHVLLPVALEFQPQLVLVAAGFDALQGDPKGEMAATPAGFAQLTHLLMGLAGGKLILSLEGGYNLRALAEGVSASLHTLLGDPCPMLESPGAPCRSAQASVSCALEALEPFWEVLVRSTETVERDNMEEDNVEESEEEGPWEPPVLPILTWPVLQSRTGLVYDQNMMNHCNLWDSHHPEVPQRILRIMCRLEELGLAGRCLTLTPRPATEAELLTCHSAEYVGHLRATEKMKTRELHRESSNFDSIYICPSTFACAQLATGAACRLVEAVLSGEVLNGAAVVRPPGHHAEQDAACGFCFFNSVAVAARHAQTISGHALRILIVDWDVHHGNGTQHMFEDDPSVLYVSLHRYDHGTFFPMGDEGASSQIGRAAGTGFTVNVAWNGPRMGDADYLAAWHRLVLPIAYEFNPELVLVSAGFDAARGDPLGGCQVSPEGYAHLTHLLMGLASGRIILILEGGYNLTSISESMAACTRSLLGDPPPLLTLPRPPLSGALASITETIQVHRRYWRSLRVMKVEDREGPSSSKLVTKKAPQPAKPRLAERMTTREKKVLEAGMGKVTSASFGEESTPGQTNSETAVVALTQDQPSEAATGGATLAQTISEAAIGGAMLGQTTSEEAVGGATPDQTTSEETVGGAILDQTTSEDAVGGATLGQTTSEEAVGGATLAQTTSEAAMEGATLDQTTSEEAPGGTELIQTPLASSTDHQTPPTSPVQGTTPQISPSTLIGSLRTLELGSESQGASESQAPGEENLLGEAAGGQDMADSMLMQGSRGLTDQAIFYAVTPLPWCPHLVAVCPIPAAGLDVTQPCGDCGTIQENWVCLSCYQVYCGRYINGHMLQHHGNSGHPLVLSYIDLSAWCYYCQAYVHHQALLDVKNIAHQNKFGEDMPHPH

[3] = molecular target: human histone deacetylases (HDAC) 1 (Homo sapiens, UniProt Q13547); experiment: HDAC enzymatic assay, HDAC1; type: biochemical; details: read-out: IC50 HDAC1 (grading)
SH-SY5Y cells [4] = experiment: Neurite synaptic uptake activity (FM1-43), SH-SY5Y; type: cell-based; details: Homo sapiens, NGF positive control taken as 100%, read-out: uptake of dye FM1-43 EC50
Method: (§1) Neurite Synaptic Uptake Activity Analysis.
(§2) The effects of compounds on the neuronal synapse uptake of fluorescent indicator FM1-43 were assayed. The uptake of the dye indicated the synaptic function of the neurites. PC 12 and SH-SY5Y cells were used. Cells in experimental groups were treated with a test compound and FM1-43; Cells in positive control were treated with NGF and FM1-43; Cells in negative control were treated with a vehicle and FM1-43. The fluorescence in the positive control were taken as 100%.

[5] = test system: hippocampus-lesioned mice; experiment: Rotarod test in Alzheimer disease model; type: in vivo; details: daily i.p. 10 mg/kg for 30 days, compared to vehicle
Excerpt: To test the effect of the compound in improving the learning ability of the animals in Alzheimer disease model, β-aggregates-induced hippocampal lesions were used to generate learning-impaired mice.

PC 12 cells [6] = experiment: Neurite synaptic uptake activity (FM1-43), PC 12; type: cell-based; details: Rattus norvegicus, NGF positive control taken as 100%, read-out: uptake of dye FM1-43 EC50
Method: as §1, §2

[7] = molecular target: T2, zinc-mediated β-amyloid aggregation (Homo sapiens, UniProt P05067); experiment: Anti-amyloid aggregation assay, CR (Congo red); type: biochemical; details: detected by CR
Method: (§3) Anti-Amyloid Aggregation Assay.
(§4) The effects of compounds on inhibition of β-amyloid aggregation were assayed. The levels of β-amyloid aggregates were determined by thioflavin S, BCA or CR assays (Tables 1). Thioflavin S, and Congo red are for in vitro staining of aggregated β-amyloid. Bicinchoninic acid (BCA) assay determines the total protein level or concentration.

[8] = molecular target: T3, human histone deacetylases (HDAC) 8 (Homo sapiens, UniProt Q9BY41); experiment: HDAC enzymatic assay, HDAC8; type: biochemical; details: HDAC8; read-out: IC50 HDAC8 (grading)
T3 sequence (Q9BY41 1-377): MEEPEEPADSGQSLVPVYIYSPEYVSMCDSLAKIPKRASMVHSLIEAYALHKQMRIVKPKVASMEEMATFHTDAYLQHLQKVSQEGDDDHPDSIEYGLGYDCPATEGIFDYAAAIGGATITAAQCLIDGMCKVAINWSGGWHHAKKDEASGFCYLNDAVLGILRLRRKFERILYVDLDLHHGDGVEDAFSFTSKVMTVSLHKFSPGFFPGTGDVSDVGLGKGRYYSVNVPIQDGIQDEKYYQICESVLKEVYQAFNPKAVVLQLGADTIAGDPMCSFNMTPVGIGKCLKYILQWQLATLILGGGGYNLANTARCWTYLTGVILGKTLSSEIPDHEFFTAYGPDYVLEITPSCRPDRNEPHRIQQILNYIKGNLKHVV

[9] = molecular target: T2, zinc-mediated β-amyloid aggregation; experiment: Anti-amyloid aggregation assay, thioflavin S; type: biochemical; details: detected by thioflavin S
Method: as §3, §4

PC 12 cells [10] = experiment: Neurite outgrowth assay, PC 12; type: cell-based; details: Rattus norvegicus
[11] = molecular target: T2, zinc-mediated β-amyloid aggregation; experiment: Anti-amyloid aggregation assay, BCA; type: biochemical; details: detected by BCA
Method: as §3, §4

[12] = MTT or SRB assay for cytotoxicity, A549; type: cell-based; details: human, A549 cells, read-out: cytotoxicity IC50 (grading) A549
Method: (§5) MTT or SRB Assays for Cytotoxicities of HDAC Inhibitors.
(§6) These compounds were assayed for cytotoxicities to the following cells: A549 cells (adenocarcinomic human alveolar basal epithelial cells), HCT-116 cells (human colon carcinoma cells). PANC-1 cells (human pancreatic carcinoma, epithelial-like cell line) and HepG2 cells (human liver hepatocellular carcinoma cell line), neuronal cells PC12 (rat pheochromocytoma cell line) and SH-SY5Y (human neuroblastoma cell line). MTT (3-[4,5-dimethylthiazol-2-yl]2,5-diphenyl-tetrazolium bromide) reduction was collaborated by using trypan blue exclusion assay.

[13] = MTT or SRB assay for cytotoxicity, HepG2; type: cell-based; details: human, HepG2 cells, read-out: cytotoxicity IC50 (grading) HepG2
Method: as §5, §6

[14] = MTT or SRB assay for cytotoxicity, PANC1; type: cell-based; details: human, PANC-1 cells, read-out: cytotoxicity IC50 (grading) PANC1
Method: as §5, §6

[15] = MTT or SRB assay for cytotoxicity, HCT116; type: cell-based; details: human, HCT-116 cells, read-out: cytotoxicity IC50 (grading) HCT116
Method: as §5, §6

T2 sequence (P05067 672-711 limits assumed): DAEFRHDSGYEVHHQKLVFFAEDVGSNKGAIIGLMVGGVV
Sequence of human histone deacetylases (HDAC) 1 (Q13547 whole entry): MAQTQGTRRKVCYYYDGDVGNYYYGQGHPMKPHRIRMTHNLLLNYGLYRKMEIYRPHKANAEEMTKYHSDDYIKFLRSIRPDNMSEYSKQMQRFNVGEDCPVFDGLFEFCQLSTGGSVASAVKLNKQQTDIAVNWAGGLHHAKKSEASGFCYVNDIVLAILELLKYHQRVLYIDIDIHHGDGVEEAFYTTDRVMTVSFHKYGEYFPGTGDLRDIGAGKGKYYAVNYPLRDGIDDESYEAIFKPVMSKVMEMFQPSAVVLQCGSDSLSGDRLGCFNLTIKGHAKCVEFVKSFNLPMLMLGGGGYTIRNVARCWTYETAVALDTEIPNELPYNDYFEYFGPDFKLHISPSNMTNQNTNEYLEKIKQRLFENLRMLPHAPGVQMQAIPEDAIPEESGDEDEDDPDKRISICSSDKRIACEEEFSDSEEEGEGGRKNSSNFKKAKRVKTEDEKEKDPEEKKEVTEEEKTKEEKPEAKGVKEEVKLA

EC50 (SH-SY5Y cells [1]) [µM]	IC50 [2] [µM]	selective inhibitions on HDAC6 ([2]; HDAC6 versus other HDACs)	IC50 [3] [µM]	EC50 (SH-SY5Y cells [4]) [µM]	EC50 (PC 12 cells [6]) [µM]	IC50 [7] [µM]	IC50 [8] [µM]	IC50 [9] [µM]	IC50 [11] [µM]	melting point	Structure (SMILES)	learning performance in rotarod test [5]	EC50 (PC 12 cells [10]) [µM]	IC50 [12] [µM]	IC50 [13] [µM]	IC50 [14] [µM]	IC50 [15] [µM]
6.77 ± 0.96	< 0.1	selective inhibitions on HDAC6	1 to 10	6.77 ± 0.96	6.49 ± 0.78	43.1	1 to 10	9.5	11.7		Cc1nc2cc(/C=C/C(=O)NO)ccc2c(=O)n1CCc1ccccc1 [Compound 1f, (2E)-3-(3,4-dihydro-2-methyl-4-oxo-3-phenethylquinazolin-7-yl)-N-hydroxyacrylamide]	improved learning performance	6.49 ± 0.78				
8.81 ± 1.04	> 10		1 to 10	8.81 ± 1.04	6.59 ± 1.06	30.9	> 10	10.7	13.8	246 to 248 °C (dec.)	Cc1nc2cc(/C=C/C(=O)Nc3ccccc3N)ccc2c(=O)n1CCc1ccccc1 [Compound 6a, (2E)-N-(2-aminophenyl)-3-(3,4-dihydro-2-methyl-4-oxo-3-phenethylquinazolin-7-yl)acrylamide]		6.59 ± 1.06	≥ 10	0.1 to 1	1 to 10	≥ 10
